PubChem BioAssay AID248 (DTP/NCI, 2004)
Values joined by “and” are separate entries in the source; they are usually repeats but may differ in a detail not shown here. Equal entries are not always repeated. Toxic doses and inconclusive results are not listed. Cut-off read from the data, not from the text of the source: active = T/C of 150% or more; inactive = T/C below 125%.

Test system: L1210 leukemia ip in BDF1 mice, survival T/C
Assay: NCI In Vivo Anticancer Drug Screen. Data for tumor model L1210 Leukemia (intraperitoneal) in B6D2F1 (BDF1) mice
Conditions: endpoint: mean survival time, higher = longer survival
Summary of the method: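 In this screen, tumor-bearing mice given compound are compared to those given vehicle, and their survival values are reported as a treated-to-control quotient.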

[1] = dose: 100.0 mg/kg/injection, schedule: Q01DX001 (ip), vehicle: saline
[2] = dose: 200.0 mg/kg/injection, schedule: Q01DX001 (ip), vehicle: saline
[3] = dose: 100.0 mg/kg/injection, schedule: Q04DX003 (ip), vehicle: saline
[4] = dose: 200.0 mg/kg/injection, schedule: Q04DX003 (ip), vehicle: saline
[5] = dose: 400.0 mg/kg/injection, schedule: Q01DX001 (ip), vehicle: saline
[6] = dose: 400.0 mg/kg/injection, schedule: Q04DX003 (ip), vehicle: saline
[7] = dose: 100.0 mg/kg/injection, schedule: Q04DX003 (ip), vehicle: Klucel (hydroxypropylcellulose) (HPC)
[8] = dose: 200.0 mg/kg/injection, schedule: Q04DX003 (ip), vehicle: Klucel (hydroxypropylcellulose) (HPC)
[9] = dose: 100.0 mg/kg/injection, schedule: Q04DX002 (ip), vehicle: saline with Tween-80
[10] = dose: 200.0 mg/kg/injection, schedule: Q04DX002 (ip), vehicle: saline with Tween-80
[11] = dose: 100.0 mg/kg/injection, schedule: Q01DX009 (ip), vehicle: saline
[12] = dose: 200.0 mg/kg/injection, schedule: Q01DX009 (ip), vehicle: saline
[13] = dose: 100.0 mg/kg/injection, schedule: Q01DX009 (ip), vehicle: saline with Tween-80
[14] = dose: 200.0 mg/kg/injection, schedule: Q01DX009 (ip), vehicle: saline with Tween-80
[15] = dose: 400.0 mg/kg/injection, schedule: Q01DX009 (ip), vehicle: saline with Tween-80
[16] = dose: 400.0 mg/kg/injection, schedule: Q04DX002 (ip), vehicle: saline with Tween-80

Measured: T/C

CCCCC1(CC)C(=O)NC(=S)NC1=O
inactive: [1] 114 % of control | [2] 104 % of control

CC1CC(C(C)CC(=O)O)C(=O)O1 (stereo not drawn)
inactive: [1] 102 % of control | [3] 111 % of control | [2] 95 % of control | [4] 108 % of control | [5] 97 % of control | [6] 101 % of control

CC1(C)CC(=O)C=C(NC2CCCCC2)C1
inactive: dose: 50.0 mg/kg/injection, schedule: Q01DX009 (ip), vehicle: saline sonified 94 % of control | dose: 100.0 mg/kg/injection, schedule: Q01DX009 (ip), vehicle: saline sonified 103 % of control | [7] 96 % of control | dose: 200.0 mg/kg/injection, schedule: Q01DX009 (ip), vehicle: saline sonified 92 % of control | [8] 98 % of control

CC(C)=CCC/C(C)=C/COC(N)=O
inactive: [9] 100 % of control and 101 % of control | [10] 100 % of control and 99 % of control

O=C(O)COCC(F)(F)C(F)(F)C(F)(F)COCC(=O)O
inactive: [11] 92 % of control | [3] 97 % of control | [12] 97 % of control | [4] 98 % of control | dose: 400.0 mg/kg/injection, schedule: Q01DX009 (ip), vehicle: saline 110 % of control | [6] 93 % of control

N=C(c1ccccc1)C1SCCCS1
inactive: [7] 103 % of control | [8] 97 % of control | dose: 400.0 mg/kg/injection, schedule: Q04DX003 (ip), vehicle: Klucel (hydroxypropylcellulose) (HPC) 97 % of control

O=C(N/N=C\c1ccc([N+](=O)[O-])cc1)c1ccncc1
inactive: [13] 94 % of control | [14] 94 % of control | [15] 98 % of control

Cc1cc[n+](CCCCCCCCCCO)cc1C
inactive: dose: 87.5 mg/kg/injection, schedule: Q01DX001 (ip), vehicle: saline 97 % of control

O=C1CCSC1
inactive: dose: 50.0 mg/kg/injection, schedule: Q01DX009 (ip), vehicle: saline with Tween-80 87 % of control | [13] 98 % of control | [14] 98 % of control

OCCCC(O)CO (stereo not drawn)
inactive: dose: 222.0 mg/kg/injection, schedule: Q01DX Z (ip), vehicle: saline 98 % of control | dose: 333.0 mg/kg/injection, schedule: Q01DX Z (ip), vehicle: saline 111 % of control | dose: 500.0 mg/kg/injection, schedule: Q01DX Z (ip), vehicle: saline 102 % of control

CCOC(=O)CNC(=O)Nc1ccc(NC(C)=O)cc1
inactive: [13] 94 % of control | [14] 94 % of control | [15] 88 % of control

CNc1ncnc2c1ccn2C1OC(CO)C(O)C1O (stereo not drawn)
inactive: dose: 50.0 mg/kg/injection, schedule: Q01DX001 (ip), vehicle: carboxymethylcellulose (CMC) 110 % of control

O=c1[nH]c(=O)ss1
inactive: [3] 100 % of control | [4] 94 % of control

CCOC(=O)CC(O)(COC)c1ccccc1 (stereo not drawn)
inactive: dose: 50.0 mg/kg/injection, schedule: Q01DX001 (ip), vehicle: saline 114 % of control | [1] 100 % of control | [2] 109 % of control | [5] 97 % of control

N#CC1(N2CCC3(CC2)OCCO3)CCCCC1
inactive: dose: 12.5 mg/kg/injection, schedule: Q01DX009 (ip), vehicle: Klucel (hydroxypropylcellulose) (HPC) 101 % of control | dose: 12.5 mg/kg/injection, schedule: Q04DX003 (ip), vehicle: Klucel (hydroxypropylcellulose) (HPC) 91 % of control | dose: 25.0 mg/kg/injection, schedule: Q01DX009 (ip), vehicle: Klucel (hydroxypropylcellulose) (HPC) 95 % of control | dose: 25.0 mg/kg/injection, schedule: Q04DX002 (ip), vehicle: Klucel (hydroxypropylcellulose) (HPC) 107 % of control | dose: 25.0 mg/kg/injection, schedule: Q04DX003 (ip), vehicle: Klucel (hydroxypropylcellulose) (HPC) 100 % of control | dose: 50.0 mg/kg/injection, schedule: Q04DX002 (ip), vehicle: Klucel (hydroxypropylcellulose) (HPC) 96 % of control | dose: 100.0 mg/kg/injection, schedule: Q04DX002 (ip), vehicle: Klucel (hydroxypropylcellulose) (HPC) 95 % of control

CSC(=S)NC#N
inactive: dose: 50.0 mg/kg/injection, schedule: Q01DX009 (ip), vehicle: saline 93 % of control | [11] 93 % of control | [3] 101 % of control | [12] 89 % of control | [4] 106 % of control | [6] 98 % of control

O=c1[nH]c2cccnc2c(=O)n1O
inactive: dose: 175.0 mg/kg/injection, schedule: Q04DX003 (ip), vehicle: carboxymethylcellulose (CMC) 108 % of control | dose: 350.0 mg/kg/injection, schedule: Q04DX003 (ip), vehicle: carboxymethylcellulose (CMC) 92 % of control

CCCCCCCCS(=O)(O)=S.[Fe]
inactive: dose: 75.0 mg/kg/injection, schedule: Q01DX001 (ip), vehicle: saline 93 % of control | dose: 150.0 mg/kg/injection, schedule: Q01DX001 (ip), vehicle: saline 91 % of control | dose: 300.0 mg/kg/injection, schedule: Q01DX001 (ip), vehicle: saline 91 % of control

O=S(=O)(O)c1ccc(-c2ccc([As](=O)(O)O)cc2)cc1
inactive: [9] 95 % of control | [10] 103 % of control | [16] 87 % of control

CCC[CH2][Sn]([c]1ccccc1)([c]1ccccc1)[c]1ccccc1
inactive: dose: 25.6 mg/kg/injection, schedule: Q04DX002 (ip), vehicle: saline with Tween-80 90 % of control | dose: 64.0 mg/kg/injection, schedule: Q04DX002 (ip), vehicle: saline with Tween-80 90 % of control | dose: 100.0 mg/kg/injection, schedule: Q04DX003 (ip), vehicle: saline with Tween-80 88 % of control | dose: 160.0 mg/kg/injection, schedule: Q04DX002 (ip), vehicle: saline with Tween-80 93 % of control | dose: 200.0 mg/kg/injection, schedule: Q04DX003 (ip), vehicle: saline with Tween-80 96 % of control | [16] 97 % of control

C=CCNC(=O)c1ccccc1O
inactive: dose: 100.0 mg/kg/injection, schedule: Q01DX009 (sc), vehicle: olive oil, sesame oil, peanut oil 101 % of control | dose: 100.0 mg/kg/injection, schedule: Q04DX003 (sc), vehicle: olive oil, sesame oil, peanut oil 91 % of control | dose: 200.0 mg/kg/injection, schedule: Q01DX009 (sc), vehicle: olive oil, sesame oil, peanut oil 101 % of control | dose: 200.0 mg/kg/injection, schedule: Q04DX003 (sc), vehicle: olive oil, sesame oil, peanut oil 100 % of control | dose: 400.0 mg/kg/injection, schedule: Q01DX009 (sc), vehicle: olive oil, sesame oil, peanut oil 94 % of control | dose: 400.0 mg/kg/injection, schedule: Q04DX003 (sc), vehicle: olive oil, sesame oil, peanut oil 91 % of control

COc1cc(Br)c(CC(=O)O)cc1OC
inactive: dose: 100.0 mg/kg/injection, schedule: Q04DX003 (ip), vehicle: acetone 96 % of control | dose: 200.0 mg/kg/injection, schedule: Q04DX003 (ip), vehicle: acetone 95 % of control | dose: 400.0 mg/kg/injection, schedule: Q04DX003 (ip), vehicle: acetone 93 % of control

CC(c1ccccc1)N(N=O)C(=O)c1ccc2ccccc2c1 (stereo not drawn)
inactive: dose: 17.0 mg/kg/injection, schedule: Q04DX002 (ip), vehicle: saline 94 % of control | dose: 33.0 mg/kg/injection, schedule: Q04DX002 (ip), vehicle: saline 105 % of control | dose: 66.0 mg/kg/injection, schedule: Q04DX002 (ip), vehicle: saline 97 % of control
